According to ChEMBL document CHEMBL4041469, “The replacement of the 2-methoxy substituent of N-((6,6-diphenyl-1,4-dioxan-2-yl)methyl)-2-(2-methoxyphenoxy)ethan-1-amine improves the selectivity for 5-HT1A receptor over α1-adrenoceptor and D2-like receptor subtypes” (Eur J Med Chem, 2017):
Active and inactive are the calls of the source. The rule behind the calls is not given here.

Key:
[1] = molecular target: T1, 5-hydroxytryptamine receptor 1A (Homo sapiens) (UniProt P08908); test: Agonist activity at recombinant human 5HT1A receptor expressed in human HeLa cell membranes assessed as stimulation of [35S]GTPgammaS binding preincubated for 20 mins followed by [35S]GTPgammaS addition measured after 30 mins by liquid scintillation counting method; assay type: functional
T1 sequence (whole entry): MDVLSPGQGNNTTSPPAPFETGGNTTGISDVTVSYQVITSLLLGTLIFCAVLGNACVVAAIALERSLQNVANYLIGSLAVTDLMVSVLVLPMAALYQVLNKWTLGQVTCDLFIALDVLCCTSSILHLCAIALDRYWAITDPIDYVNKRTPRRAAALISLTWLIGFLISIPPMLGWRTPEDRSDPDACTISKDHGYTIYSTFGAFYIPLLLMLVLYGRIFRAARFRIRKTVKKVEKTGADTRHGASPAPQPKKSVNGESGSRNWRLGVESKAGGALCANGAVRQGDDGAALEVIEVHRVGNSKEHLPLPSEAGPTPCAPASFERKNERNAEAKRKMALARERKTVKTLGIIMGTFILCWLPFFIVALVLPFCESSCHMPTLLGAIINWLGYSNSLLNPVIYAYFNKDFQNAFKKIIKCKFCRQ

[2] = molecular target: T1, 5-hydroxytryptamine receptor 1A (Homo sapiens); test: Agonist activity at recombinant human 5HT1A receptor expressed in human HeLa cell membranes assessed as stimulation of [35S]GTPgammaS binding up to 10 uM preincubated for 20 mins followed by [35S]GTPgammaS addition measured after 30 mins by liquid scintillation counting method relative to 5-HT; assay type: functional
[3] = molecular target: T2, 5-hydroxytryptamine receptor 1A (Homo sapiens, UniProt P08908); test: Displacement of [3H]8-OH-DPAT from recombinant human 5HT1A receptor expressed in human HeLa cell membranes after 30 mins by liquid scintillation counting method
T2 sequence (P08908 whole entry): T1 sequence (whole entry)

[4] = molecular target: T3, Alpha-1D adrenergic receptor (Homo sapiens, UniProt P25100); test: Displacement of [3H]prazosin from recombinant human alpha-1d adrenergic receptor expressed in CHO cell membranes after 30 mins by liquid scintillation counting method
T3 sequence (P25100 whole entry): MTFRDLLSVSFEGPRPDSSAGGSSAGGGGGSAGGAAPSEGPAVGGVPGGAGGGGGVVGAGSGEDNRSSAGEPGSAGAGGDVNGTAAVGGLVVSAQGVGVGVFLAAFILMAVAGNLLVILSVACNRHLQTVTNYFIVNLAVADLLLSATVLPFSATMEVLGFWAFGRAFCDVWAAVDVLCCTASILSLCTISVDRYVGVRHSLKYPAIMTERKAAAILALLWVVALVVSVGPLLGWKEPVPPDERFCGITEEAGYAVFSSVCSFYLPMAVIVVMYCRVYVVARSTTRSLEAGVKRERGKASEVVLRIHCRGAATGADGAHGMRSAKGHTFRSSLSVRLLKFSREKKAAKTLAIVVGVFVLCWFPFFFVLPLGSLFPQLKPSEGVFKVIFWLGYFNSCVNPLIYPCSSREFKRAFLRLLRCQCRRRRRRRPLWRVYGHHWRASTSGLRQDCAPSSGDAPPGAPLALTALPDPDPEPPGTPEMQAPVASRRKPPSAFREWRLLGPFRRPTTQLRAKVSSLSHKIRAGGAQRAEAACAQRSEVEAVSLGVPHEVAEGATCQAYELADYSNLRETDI

[5] = molecular target: T4, Alpha-1A adrenergic receptor (Homo sapiens, UniProt P35348); test: Displacement of [3H]prazosin from recombinant human alpha-1a adrenergic receptor expressed in CHO cell membranes after 30 mins by liquid scintillation counting method
T4 sequence (P35348 whole entry): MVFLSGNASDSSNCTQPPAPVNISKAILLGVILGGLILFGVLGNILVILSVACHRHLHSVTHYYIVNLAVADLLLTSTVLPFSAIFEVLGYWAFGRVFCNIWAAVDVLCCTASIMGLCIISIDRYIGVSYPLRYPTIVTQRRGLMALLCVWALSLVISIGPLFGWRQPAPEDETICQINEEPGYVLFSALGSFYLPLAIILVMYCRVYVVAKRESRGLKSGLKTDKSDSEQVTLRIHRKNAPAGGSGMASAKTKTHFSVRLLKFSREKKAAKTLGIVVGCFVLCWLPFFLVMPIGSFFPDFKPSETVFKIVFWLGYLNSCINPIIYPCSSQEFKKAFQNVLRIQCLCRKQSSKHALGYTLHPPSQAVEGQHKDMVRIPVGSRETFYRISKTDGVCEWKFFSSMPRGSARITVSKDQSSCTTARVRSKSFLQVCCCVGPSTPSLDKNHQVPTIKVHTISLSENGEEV

[6] = molecular target: T5, Alpha-1B adrenergic receptor (Homo sapiens, UniProt P35368); test: Displacement of [3H]prazosin from recombinant human alpha-1b adrenergic receptor expressed in CHO cell membranes after 30 mins by liquid scintillation counting method
T5 sequence (P35368 whole entry): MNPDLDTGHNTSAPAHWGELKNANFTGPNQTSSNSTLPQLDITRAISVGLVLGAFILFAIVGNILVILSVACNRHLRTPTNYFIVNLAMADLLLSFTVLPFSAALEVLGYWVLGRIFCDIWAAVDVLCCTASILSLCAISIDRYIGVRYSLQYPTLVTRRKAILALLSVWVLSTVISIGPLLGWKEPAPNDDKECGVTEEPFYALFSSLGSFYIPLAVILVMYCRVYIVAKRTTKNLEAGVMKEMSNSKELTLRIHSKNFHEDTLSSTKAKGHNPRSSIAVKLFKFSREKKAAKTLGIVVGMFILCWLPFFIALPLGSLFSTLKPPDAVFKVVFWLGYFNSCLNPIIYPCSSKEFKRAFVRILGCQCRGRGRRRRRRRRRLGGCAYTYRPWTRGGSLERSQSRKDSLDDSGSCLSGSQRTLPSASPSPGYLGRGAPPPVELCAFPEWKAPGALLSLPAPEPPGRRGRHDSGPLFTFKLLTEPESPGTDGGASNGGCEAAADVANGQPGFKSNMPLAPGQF

D(4) dopamine receptor = molecular target: T6, D(4) dopamine receptor (Homo sapiens, UniProt P21917); test: Displacement of [3H]N-methylspiperone from recombinant human D4 receptor expressed in HEK293 cell membranes after 1 hr by liquid scintillation counting method
T6 sequence (P21917 whole entry): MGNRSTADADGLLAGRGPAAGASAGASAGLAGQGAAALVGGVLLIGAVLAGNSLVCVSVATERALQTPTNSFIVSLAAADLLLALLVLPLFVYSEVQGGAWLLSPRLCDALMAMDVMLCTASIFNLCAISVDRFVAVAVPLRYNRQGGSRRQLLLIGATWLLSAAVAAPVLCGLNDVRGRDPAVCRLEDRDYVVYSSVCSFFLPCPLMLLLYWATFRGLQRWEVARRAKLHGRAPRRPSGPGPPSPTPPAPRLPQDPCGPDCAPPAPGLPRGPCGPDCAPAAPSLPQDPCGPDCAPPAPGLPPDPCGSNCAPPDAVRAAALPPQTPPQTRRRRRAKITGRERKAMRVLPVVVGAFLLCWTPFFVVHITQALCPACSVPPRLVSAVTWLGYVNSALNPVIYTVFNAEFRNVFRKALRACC

[7] = Selectivity index, ratio of Ki for recombinant human D3 receptor expressed in HEK293 cell membranes to Ki for recombinant human 5HT1A receptor expressed in human HeLa cell membranes
[8] = Selectivity index, ratio of Ki for recombinant human D4 receptor expressed in HEK293 cell membranes to Ki for recombinant human 5HT1A receptor expressed in human HeLa cell membranes
D(3) dopamine receptor = D(3) dopamine receptor (Homo sapiens, UniProt P35462); test: Displacement of [3H]N-methylspiperone from recombinant human D3 receptor expressed in HEK293 cell membranes after 1 hr by liquid scintillation counting method
[9] = Selectivity index, ratio of Ki for recombinant human alpha-1d adrenergic receptor expressed in CHO cell membranes to Ki for recombinant human 5HT1A receptor expressed in human HeLa cell membranes
D(2) dopamine receptor = D(2) dopamine receptor (Homo sapiens, UniProt P14416); test: Displacement of [3H]N-methylspiperone from recombinant human D2 receptor expressed in HEK293 cell membranes after 1 hr by liquid scintillation counting method
[10] = Selectivity index, ratio of Ki for recombinant human D2 receptor expressed in HEK293 cell membranes to Ki for recombinant human 5HT1A receptor expressed in human HeLa cell membranes
[11] = Selectivity index, ratio of Ki for recombinant human alpha-1a adrenergic receptor expressed in CHO cell membranes to Ki for recombinant human 5HT1A receptor expressed in human HeLa cell membranes
Mus musculus [12] = test: Anxiolytic activity in ip dosed CD-1 mouse assessed as increase in latency time to enter dark area administered 30 mins prior to test by light/dark exploration test; assay type: functional, organism-based
Mus musculus [13] = test: Anxiolytic activity in ip dosed CD-1 mouse assessed as increase in time spent in light area administered 30 mins prior to test by light/dark exploration test; assay type: functional, organism-based
Mus musculus [14] = test: Anxiolytic activity in CD-1 mouse assessed as increase in time spent in light area at 30 mg/kg, ip administered 30 mins prior to test in presence of 5HT1A receptor antagonist WAY100135 by light/dark exploration test; assay type: functional, organism-based
[15] = Selectivity index, ratio of Ki for recombinant human alpha-1b adrenergic receptor expressed in CHO cell membranes to Ki for recombinant human 5HT1A receptor expressed in human HeLa cell membranes
Mus musculus [16] = test: Anxiolytic activity in CD-1 mouse assessed as increase in latency time to enter dark area at 2.5 mg/kg, ip administered 30 mins prior to test by light/dark exploration test; assay type: functional, organism-based
Mus musculus [17] = test: Anxiolytic activity in CD-1 mouse assessed as increase in time spent in light area at 2.5 mg/kg, ip administered 30 mins prior to test by light/dark exploration test; assay type: functional, organism-based

D(3) dopamine receptor, sequence (P35462 whole entry): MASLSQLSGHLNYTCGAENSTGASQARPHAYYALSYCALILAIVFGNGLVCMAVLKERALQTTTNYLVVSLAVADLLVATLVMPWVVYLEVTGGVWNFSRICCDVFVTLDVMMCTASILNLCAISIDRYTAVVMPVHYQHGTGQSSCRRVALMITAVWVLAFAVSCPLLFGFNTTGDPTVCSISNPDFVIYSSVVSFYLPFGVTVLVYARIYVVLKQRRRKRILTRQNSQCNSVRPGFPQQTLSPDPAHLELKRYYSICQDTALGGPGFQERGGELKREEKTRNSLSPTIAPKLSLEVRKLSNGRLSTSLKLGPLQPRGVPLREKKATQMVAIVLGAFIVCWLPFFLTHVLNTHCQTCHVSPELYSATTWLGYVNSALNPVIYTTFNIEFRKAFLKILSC
D(2) dopamine receptor, sequence (P14416 whole entry): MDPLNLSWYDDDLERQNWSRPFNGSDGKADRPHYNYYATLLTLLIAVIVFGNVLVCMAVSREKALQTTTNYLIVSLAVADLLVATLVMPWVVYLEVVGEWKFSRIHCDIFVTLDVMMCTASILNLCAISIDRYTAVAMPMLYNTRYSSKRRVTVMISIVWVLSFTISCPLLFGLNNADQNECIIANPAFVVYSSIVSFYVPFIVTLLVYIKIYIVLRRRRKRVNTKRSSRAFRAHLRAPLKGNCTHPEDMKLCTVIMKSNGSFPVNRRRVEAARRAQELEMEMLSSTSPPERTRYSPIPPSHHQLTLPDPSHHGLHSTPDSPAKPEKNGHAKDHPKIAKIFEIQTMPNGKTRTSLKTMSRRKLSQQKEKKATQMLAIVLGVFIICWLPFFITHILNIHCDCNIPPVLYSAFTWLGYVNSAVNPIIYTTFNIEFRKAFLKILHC

Row | SMILES | pD2 [1] | Emax [2] [%] | Ki [3] [nM] | Ki [4] [nM] | Ki [5] [nM] | Ki [6] [nM] | further results
1 | COc1cccc(OC)c1OCCNC[C@H]1COCC(c2ccccc2)(c2ccccc2)O1 | 8.3 |  |  |  |  |  | 
2 | COc1ccccc1OCCNC[C@@H]1CO[C@H](c2ccccc2)CO1 (racemic) | 7.88 | 85.5 |  |  |  |  | 
3 | c1ccc(OCCNCC2COC(c3ccccc3)(c3ccccc3)CO2)cc1 (racemic) |  |  | 37.2 |  |  |  | 
4 | COc1ccccc1OCCNC[C@@H]1COCC(c2ccccc2)(c2ccccc2)O1 | 7.7 |  |  |  |  |  | 
5 | O=C1CC2(CCCC2)CC(=O)N1CCN1CCN(c2ccccc2O)CC1 |  |  |  | 16.2 |  |  | 
6 | COc1ccccc1N1CCN(CCN2C(=O)CC3(CCCC3)CC2=O)CC1 | 9.27 |  |  |  |  |  | 
7 | COc1cccc(OC)c1OCCNCC1COCC(c2ccccc2)(c2ccccc2)O1 (racemic) | 8.28 |  |  |  |  |  | 
8 | COc1cccc(OC)c1OCCNC[C@@H]1COCC(c2ccccc2)(c2ccccc2)O1 | 5.88 |  |  |  |  |  | 
9 | O=[N+]([O-])c1ccccc1OCCNCC1COCC(c2ccccc2)(c2ccccc2)O1 (racemic) | 8.93 | 82.5 to 82.6 | 0.562 | 6.61 | 117 | 251 | 
10 | Oc1ccccc1OCCNCC1COCC(c2ccccc2)(c2ccccc2)O1 (racemic) | 7.8 | 65.6 | 0.692 | 77.6 | 195 | 372 | Ki (D(4) dopamine receptor): 36.3 nM; Ratio Ki [7]: 49; Ratio Ki [8]: 53; Ki (D(3) dopamine receptor): 33.9 nM; Ratio Ki [9]: 112; Ki (D(2) dopamine receptor): 15.5 nM; Ratio Ki [10]: 22
11 | Cc1ccccc1OCCNCC1COCC(c2ccccc2)(c2ccccc2)O1 (racemic) | 8.73 | 59.7 | 1.12 | 5.01 | 170 | 178 | 
12 | COc1cccc(OC)c1OCCNCC1COC(c2ccccc2)(c2ccccc2)CO1 (racemic) |  |  | 229 |  |  |  | 
13 | COc1ccccc1OCCNCC1COC(c2ccccc2)(c2ccccc2)CO1 (racemic) |  |  | 7.59 |  |  |  | 
14 | c1ccc(C2(c3ccccc3)COCC(CNCCOc3ccccn3)O2)cc1 (racemic) | 8.02 | 63.9 | 0.891 | 5.5 | 155 | 115 | 
15 | COc1ccccc1OCCNC[C@@H]1COC[C@H](c2ccccc2)O1 (racemic) |  | 78.1 |  |  |  |  | 
16 | COCOc1ccccc1OCCNCC1COCC(c2ccccc2)(c2ccccc2)O1 (racemic) | 9.41 | 62.8 | 0.631 | 79.4 | 282 | 288 | Ki (D(4) dopamine receptor): 51.3 nM; Ratio Ki [7]: 105; Ratio Ki [8]: 81; Ki (D(3) dopamine receptor): 66.1 nM; Ratio Ki [11]: 447; Activity (Mus musculus [12]): Dose-dependent effect; Activity (Mus musculus [13]): Dose-dependent effect; Ratio Ki [9]: 126; Ki (D(2) dopamine receptor): 105 nM; Activity (Mus musculus [14]): inactive; Ratio Ki [15]: 457; Ratio Ki [10]: 166
17 | Clc1ccccc1OCCNCC1COCC(c2ccccc2)(c2ccccc2)O1 (racemic) | 8.7 | 66 | 0.794 | 5.89 | 115 | 120 | 
18 | COc1ccccc1OCCNC[C@H]1COCC(c2ccccc2)(c2ccccc2)O1 | 9.19 |  |  |  |  |  | 
19 | COc1ccccc1OCCNCC1COCC(c2ccccc2)(c2ccccc2)O1 (racemic) | 9.4 |  |  |  |  |  | Ki (D(4) dopamine receptor): 8.32 nM; Ratio Ki [7]: 20; Ratio Ki [8]: 13; Ki (D(3) dopamine receptor): 13.2 nM; Ratio Ki [11]: 42; Ratio Ki [9]: 2; Ki (D(2) dopamine receptor): 12.3 nM; Ratio Ki [15]: 85; Ratio Ki [10]: 19
20 | CN1C(=O)CN=C(c2ccccc2)c2cc(Cl)ccc21 |  |  |  |  |  |  | Activity (Mus musculus [16]): Active; Activity (Mus musculus [17]): Active
